Results taken from ChEMBL document CHEMBL3120118, “Evaluation of 1,2,5-thiadiazoles as modulators of M₁/M₅ muscarinic receptor subtypes” (Bioorg Med Chem, 2014).
Activity calls are given as the source filed them. No cut-off for these calls is given here.

How the values were obtained:
[1] = biological target: T1, Muscarinic acetylcholine receptor M1 (Homo sapiens) (UniProt P11229); assay: Stimulation of human muscarinic M1 receptor expressed in mouse A9 L cells at 1 to 100 uM after 1 hr by topcount analysis; type: cell-based; conditions: A9L
T1 sequence (whole entry): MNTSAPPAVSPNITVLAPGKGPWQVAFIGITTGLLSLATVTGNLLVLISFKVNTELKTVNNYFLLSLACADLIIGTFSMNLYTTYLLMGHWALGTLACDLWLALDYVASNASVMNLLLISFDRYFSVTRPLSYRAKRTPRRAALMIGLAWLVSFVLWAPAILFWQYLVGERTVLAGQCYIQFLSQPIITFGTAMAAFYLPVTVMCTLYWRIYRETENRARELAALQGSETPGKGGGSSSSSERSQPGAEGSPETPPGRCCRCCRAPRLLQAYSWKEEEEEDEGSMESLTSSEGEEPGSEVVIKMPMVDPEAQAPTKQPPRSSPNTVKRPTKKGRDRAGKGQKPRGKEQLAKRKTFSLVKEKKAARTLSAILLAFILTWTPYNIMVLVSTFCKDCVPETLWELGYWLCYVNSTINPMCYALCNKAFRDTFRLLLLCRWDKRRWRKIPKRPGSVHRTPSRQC

[2] = biological target: T1, Muscarinic acetylcholine receptor M1 (Homo sapiens); assay: Modulation of human muscarinic M1 receptor expressed in mouse A9 L cells assessed as effect on carbachol-induced phosphoinositide metabolism at 1 to 100 uM after 1 hr by topcount analysis; type: cell-based; conditions: A9L
[3] = biological target: T2, Muscarinic acetylcholine receptor M5 (Homo sapiens) (UniProt P08912); assay: Modulation of human muscarinic M5 receptor expressed in mouse A9 L cells assessed as effect on carbachol-induced phosphoinositide metabolism at 1 to 100 uM after 1 hr by topcount analysis; type: cell-based; conditions: A9L
T2 sequence (whole entry): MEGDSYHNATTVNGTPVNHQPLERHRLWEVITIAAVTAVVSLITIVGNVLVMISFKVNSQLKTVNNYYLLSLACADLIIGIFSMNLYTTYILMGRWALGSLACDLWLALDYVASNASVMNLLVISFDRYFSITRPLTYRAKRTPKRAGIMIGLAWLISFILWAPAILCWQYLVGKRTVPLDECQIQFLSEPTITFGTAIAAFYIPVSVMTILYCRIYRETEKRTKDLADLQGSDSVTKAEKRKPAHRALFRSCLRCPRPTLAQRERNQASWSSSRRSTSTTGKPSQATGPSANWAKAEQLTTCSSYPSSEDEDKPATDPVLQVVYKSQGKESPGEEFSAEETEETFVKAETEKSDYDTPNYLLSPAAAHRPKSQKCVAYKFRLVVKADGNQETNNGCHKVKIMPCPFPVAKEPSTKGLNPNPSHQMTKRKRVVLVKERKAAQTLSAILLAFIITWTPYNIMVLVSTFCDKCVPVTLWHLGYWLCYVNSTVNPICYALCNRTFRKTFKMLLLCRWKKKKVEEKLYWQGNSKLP

[4] = biological target: T2, Muscarinic acetylcholine receptor M5 (Homo sapiens); assay: Stimulation of human muscarinic M5 receptor expressed in mouse A9 L cells at 1 to 100 uM after 1 hr by topcount analysis; type: cell-based; conditions: A9L
[5] = Solubility of the compound in 50% DMSO; type: physicochemical
[6] = biological target: T1, Muscarinic acetylcholine receptor M1 (Homo sapiens); assay: Modulation of human muscarinic M1 receptor expressed in mouse A9 L cells assessed as effect on carbachol-induced phosphoinositide metabolism at 10 to 300 uM by Schild plot analysis; type: cell-based; conditions: A9L
[7] = biological target: T2, Muscarinic acetylcholine receptor M5 (Homo sapiens); assay: Modulation of human muscarinic M5 receptor expressed in mouse A9 L cells assessed as inhibition of carbachol-induced phosphoinositide metabolism at 1 to 100 uM after 1 hr by topcount analysis; type: cell-based; conditions: A9L
[8] = biological target: T1, Muscarinic acetylcholine receptor M1 (Homo sapiens); assay: Modulation of human muscarinic M1 receptor expressed in mouse A9 L cells assessed as effect on carbachol-induced phosphoinositide metabolism at 1 uM by Schild plot analysis; type: cell-based; conditions: A9L
[9] = biological target: T2, Muscarinic acetylcholine receptor M5 (Homo sapiens); assay: Modulation of human muscarinic M5 receptor expressed in mouse A9 L cells assessed as competitive inhibition of carbachol-induced phosphoinositide metabolism by Schild plot analysis; type: cell-based; conditions: A9L
[10] = biological target: T2, Muscarinic acetylcholine receptor M5 (Homo sapiens); assay: Modulation of human muscarinic M5 receptor expressed in mouse A9 L cells assessed as inhibition of carbachol-induced phosphoinositide metabolism at 100 uM after 1 hr by topcount analysis; type: cell-based; conditions: A9L
[11] = biological target: T1, Muscarinic acetylcholine receptor M1 (Homo sapiens); assay: Modulation of human muscarinic M1 receptor expressed in mouse A9 L cells assessed as inhibition of carbachol-induced phosphoinositide metabolism at 100 uM after 1 hr by topcount analysis; type: cell-based; conditions: A9L

Activity [1] | Activity [2] | Activity [3] | Activity [4] | solubility [5] | Compound | further results
inactive | inactive | inactive | inactive | – | COc1nsnc1OCCO | –
inactive | inactive | – | inactive | – | COc1nsnc1OCCN(C)C | Activity [6]: Active; inhibition [7]: Active; Activity [8]: inactive; inhibition [9]: Dose-dependent effect
– | – | – | – | Insoluble | COc1nsnc1OCCOCCOCc1ccccc1 | –
– | – | – | – | Insoluble | COc1nsnc1OCCOCCOCCOCCOc1nsnc1OC | –

More lines, now with the values behind:

Compound | Activity [1] | Activity [2] | Activity [3] | Activity [4] | solubility [5] | further results
COc1nsnc1OCCOCCOCCOCCO | inactive | inactive | inactive | inactive | – | –
COc1nsnc1OCCOCCOCCO | inactive | inactive | inactive | inactive | – | –
COc1nsnc1OCCOCCOCCOc1nsnc1OC | – | – | – | – | Insoluble | –
COc1nsnc1OCC[N+](C)(C)C | inactive | – | – | inactive | – | inhibition [10]: Active; inhibition [11]: Active
